Assay results as given in patent publication US7951407B2, “Ruminant feed containing N-carbamoyl glutamate” (University of Maryland, priority 2003, dated 2011).

Experiments:
[1] = test system: Ruminal epithelial cells (REC); assay: Net urea production by isolated ruminal epithelial cells incubated with ornithine-urea cycle substrate intermediates; type: cell-based, sheep; design: net urea production: dose or concentration left out as unconfirmed
Excerpt: Ruminal epithelial cells (REC) and duodenal mucosal cells (DMC) were harvested from four growing Polypay ram lambs (33.1 plus/minus 4.8 kg body weight) fed a pelleted diet comprised of 55% forage (alfalfa hay) and 45% concentrate (dry ground corn. soybean meal, and premix of minerals and vitamins) ad libitum for at least two weeks before slaughter. All animal procedures were approved by the Beltsville Agricultural Research Center Institutional Animal Care and Use Committee (protocol # 02-008). Gut cells were isolated separately for each sheep following the procedures described by Baldwin and McLeod and Oba et al. Cell viability averaged 73.1% for REC and 82.4% for DMC. […] N-carbamoyl glutamate is a stable analog of […] stimulator of carbamoyl phosphate synthetase. Treatments were arranged in a 2×4 factorial design, and performed in triplicate incubations for each sheep. […] Krebs-Ringer plus 24 mM HEPES and 0.12 M sodium bicarbonate) was oxygenated with O2:CO2 (95:5) and the pH adjusted to 7.4. Incubations were initiated by addition of 0.5 ml of cell suspension (1×10^7 viable cells) to freshly gassed (20 s under 95:5 O2:CO2) media, and flasks were placed into a reciprocal action shaking water bath at 37° C. After 90 min, 0.2 ml of concentrated HClO4 was injected into the flasks to terminate the incubation, followed by addition of 0.3 ml of 5.8 M K2CO3 to neutralize the media. […] See Lobley, G. E. et al., Br. J. Nutr. […] Urea concentration was determined by isotope dilution with gas chromatography-mass spectrometry (HP6890 coupled to an HP5973 Mass Selective Detector, Agilent, Palo Alto, Calif.) essentially according to the known method of Calder et al. See Calder, A. G., Rapid Commun. […] Net urea production was calculated by subtracting background urea present at time 0 (Control) from concentrations after 90-min incubation. Data were analyzed separately for REC and DMC using the Proc Mixed procedure of SAS (SAS Inc., Cary, N.C.) with fixed effect of VFA type, substrate combination, their interactions, and random effect of animals in the model.

[2] = test system: duodenal mucosal cells (DMC); assay: Net urea production by isolated duodenal mucosal cells incubated with ornithine-urea cycle substrate intermediates; type: cell-based, sheep; design: net urea production: dose or concentration left out as unconfirmed
Excerpt: Ruminal epithelial cells (REC) and duodenal mucosal cells (DMC) were harvested from four growing Polypay ram lambs (33.1 plus/minus 4.8 kg body weight) fed a pelleted diet comprised of 55% forage (alfalfa hay) and 45% concentrate (dry ground corn. soybean meal, and premix of minerals and vitamins) ad libitum for at least two weeks before slaughter. All animal procedures were approved by the Beltsville Agricultural Research Center Institutional Animal Care and Use Committee (protocol # 02-008). Gut cells were isolated separately for each sheep following the procedures described by Baldwin and McLeod and Oba et al. Cell viability averaged 73.1% for REC and 82.4% for DMC. […] Urea concentration was determined by isotope dilution with gas chromatography-mass spectrometry (HP6890 coupled to an HP5973 Mass Selective Detector, Agilent, Palo Alto, Calif.) essentially according to the known method of Calder et al. See Calder, A. G., Rapid Commun. […] Net urea production was calculated by subtracting background urea present at time 0 (Control) from concentrations after 90-min incubation. Data were analyzed separately for REC and DMC using the Proc Mixed procedure of SAS (SAS Inc., Cary, N.C.) with fixed effect of VFA type, substrate combination, their interactions, and random effect of animals in the model.

N=C(N)NCCC[C@H](N)C(=O)O [Arg, arginine]
net urea production by REC relative to DMC ([1]; REC versus DMC in the presence of arginine): 25 fold
net urea production ([1]; REC, 90 min incubation in media, background urea at time 0 subtracted): 54.5±6.3 nmoles·10^6 cells^−1 90 min^−1
net urea production ([2]; 90 min incubation in media, background urea at time 0 subtracted): 2.1±0.7 nmoles·10^6 cells^−1 90 min^−1

NC(=O)N[C@@H](CCC(=O)O)C(=O)O [N-carbamoyl glutamate]
effect of N-carbamoyl glutamate addition on urea synthesis ([1]; REC, AspONG versus AspON (P=0.11)): stimulatory effect
effect of N-carbamoyl glutamate addition on urea synthesis ([2]; AspONG versus AspON (P<0.001)): stimulatory effect
